From patent US20140234988A1, “Methods for Diagnosing and Treating Medical Conditions Associated With Oxidative Stress” (priority 2011, published 2014)

Columns and labels:
[1] = biological target: human serum albumin, binding site II (plasma of patients with acute-on-chronic liver failure, ACLF) (Homo sapiens, UniProt P02768); details: ACLF group vs controls
Source text: (§1) In blood samples derived from the study population (9 consecutive patients with acute-on-chronic liver failure (ACLF) being evaluated for extracorporeal liver support and 20 patients with cirrhosis who were candidates for liver transplantation), albumin was fractionated by HPLC as previously described (Kawai, K. et al. (2001) Tokai J. Exp. Clin. Med. 26, 93-99) resulting in three protein fractions representing cysteine 34 as free sulfhydryl form (HMA), as mixed disulfide (HNA1), or in a higher oxidation state (HNA2).
(§2) Plasma albumin concentrations were determined by using an automatic clinical chemical analyser (EuroLyser, Eurolyser Diagnostica, Salzburg, Austria).
(§3) Serum samples were diluted with PBS and adjusted to an albumin concentration of 40 μM. Based on the 40 μM sample, a dilution series with final concentrations of 20 μM, 10 μM, and 5 μM albumin (in PBS) was made. Each of these samples (250 μl) was mixed with the same volume of 10 μM DS (Sigma-Aldrich, Vienna, Austria) solution. […] DS was detected by means of determining fluorescence at 482/350 nm using a Hitachi F1050 (Merck) detector. Quantificaton via the peak heights was done using the EZ Chrom Elite chromatography software (VWR, Vienna, Austria). From the straight line obtained by the graph of ln (free DS) vs. albumin, the albumin concentration binding half of the ligand was calculated and given as IC50 (μmol/l).

[2] = biological target: human serum albumin, binding site II (plasma of patients with cirrhosis) (Homo sapiens, UniProt P02768); details: cirrhotic patients vs controls
Source text: as §1, §2, §3

[3] = biological target: human serum albumin, binding site II (plasma of patients with sepsis) (Homo sapiens, UniProt P02768); details: septic group vs controls
Sequence of human serum albumin, binding site II (plasma of patients with sepsis) (P02768 25-609): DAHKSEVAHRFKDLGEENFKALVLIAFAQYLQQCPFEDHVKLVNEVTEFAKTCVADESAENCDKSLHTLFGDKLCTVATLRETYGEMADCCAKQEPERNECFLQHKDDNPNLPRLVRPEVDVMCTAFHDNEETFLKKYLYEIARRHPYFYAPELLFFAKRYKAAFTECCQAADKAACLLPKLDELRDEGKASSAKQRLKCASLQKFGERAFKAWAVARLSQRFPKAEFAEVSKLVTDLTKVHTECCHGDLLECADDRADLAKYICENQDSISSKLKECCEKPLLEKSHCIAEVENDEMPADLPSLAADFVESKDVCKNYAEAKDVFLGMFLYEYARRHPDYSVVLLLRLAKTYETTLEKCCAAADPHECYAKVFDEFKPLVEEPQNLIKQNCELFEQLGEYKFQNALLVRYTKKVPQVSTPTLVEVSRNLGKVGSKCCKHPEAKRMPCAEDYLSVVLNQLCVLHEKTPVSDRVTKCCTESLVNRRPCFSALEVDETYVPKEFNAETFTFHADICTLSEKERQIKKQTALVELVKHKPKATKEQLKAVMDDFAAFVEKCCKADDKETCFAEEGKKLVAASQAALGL
Procedure: as §2
Serum samples were diluted with PBS and adjusted to an albumin concentration of 40 μM. Based on the 40 μM sample, a dilution series with final concentrations of 20 μM, 10 μM, and 5 μM albumin (in PBS) was made. Each of these samples (250 μl) was mixed with the same volume of 10 μM DS (Sigma-Aldrich, Vienna, Austria) solution. Unbound DS molecules were separated from the plasma components via ultrafiltration (Ultrafree-MC reg. Cellulose 30K, Millipore, Vienna, Austria) at 500 g for 10 min at room temperature. 150 μl of the flow through were put into HPLC vials. As a control, 10 μM DS was diluted with the same volume of Millipore water and ultrafiltered as described. For an external standard curve, a dilution series of DS with Millipore water (10 μM, 5 μM, 2.5 μM, and 1.25 μM) was prepared. 20 μl of the filtrate were then injected to the HPLC system. […] DS was detected by means of determining fluorescence at 482/350 nm using a Hitachi F1050 (Merck) detector. Quantificaton via the peak heights was done using the EZ Chrom Elite chromatography software (VWR, Vienna, Austria). From the straight line obtained by the graph of ln (free DS) vs. albumin, the albumin concentration binding half of the ligand was calculated and given as IC50 (μmol/l). […]

Sequence of human serum albumin, binding site II (plasma of patients with cirrhosis) (P02768 25-609): as above
Sequence of human serum albumin, binding site II (plasma of patients with acute-on-chronic liver failure, ACLF) (P02768 25-609): as above

CN(C)c1cccc2c(S(=O)(=O)N(C)CC(=O)O)cccc12 [dansylsarcosine]
IC50-values, compared with controls [1]: IC50-values were increased in the septic and ACLF group | DS binding, compared with controls [2]: no difference in DS binding between controls and cirrhotic patients | IC50-values, compared with controls [3]: IC50-values were increased in the septic and ACLF group
